The text below walks through data of patent publication US20240252496A1, “SELECTIVE HYPOTHALAMUS PERMEABLE HDAC6 INHIBITORS FORTREATMENT OF LEPTIN-RESISTANT OBESITY” (The Children’s Medical Center Corporation, priority 2022, published 2024).

“Also recorded” adds a separate entry of the source.

Holding throughout (type): in vivo
Assay [1] deals with DIO mice. Nature of the assay: Acute leptin co-treatment in DIO mice (body weight, food intake 15 h). To be noted: for body weight 15 h after leptin in inhibitor-pretreated mice / food intake 15 h after leptin in inhibitor-pretreated mice: leptin 1 mg/kg i.p., ACY775 10, ACY738 50, ricolinostat 25 mg/kg/day i.p.; for body weight, inhibitor alone: 3 days pretreatment i.p., ACY775 10, ricolinostat 25 mg/kg; for food intake, inhibitor alone: ACY775 10, ricolinostat 25 mg/kg i.p. The method, then:
DIO mice were pretreated with ACY775 (10 mg/kg/day, i.p.) or vehicle for 3 days, which was followed by co-treatment with ACY775 (or vehicle) and leptin (1 mg/kg, i.p.) (or saline) (n=9 for each group), % change in body weight 15 h after leptin treatment, food intake (g) during the 15 h period after leptin treatment. The results in were reproduced in two independent experiments.
Diet induced obese (DIO) mice were pretreated with ACY775 (10 mg/kg/day, i.p.) or vehicle for 3 days, which was followed by co-treatment with ACY775 (or vehicle) and leptin (1 mg/kg, i.p.) (or saline) (n=9 for each group). Mice were evaluated for % change in body weight 15 h after leptin treatment, and food intake (g) during the 15 h period after leptin treatment.
DIO mice were pretreated with ricolinostat (25 mg/kg/day, i.p.) or vehicle for 3 days, which was followed by co-treatment with ricolinostat (or vehicle) and leptin (1 mg/kg, i.p.) (or saline) (n=32 for each group). Change in body weight 15 h after leptin treatment, and food intake (g) during the 15 h period after leptin treatment were determined. The results were reproduced in two independent experiments.

The test system of assay [2] is DIO mice. Nature of the assay: Chronic treatment of DIO mice (body weight, food intake, leptin, DEXA). To be noted: for body weight after treatment / decrease in body weight: 3 weeks; for body weight after treatment / decrease in body weight / body weight before treatment / daily food intake under treatment: ACY775 10, ACY738 50 mg/kg/day i.p.; for fat mass (DEXA) / fat percentage (DEXA) / lean mass (DEXA) / circulating/serum leptin levels: after 3 weeks; for circulating/serum leptin levels: ACY775 10, ACY738 50, ricolinostat 50 mg/kg i.p.; for food intake and total body fat mass: high fat diet induced mice, summary. As to the method: DIO mice were treated with ACY775 (10 mg/kg/day, i.p.) for 3 weeks. Daily body weight (g) of DIO mice treated with vehicle (n=17) or ACY775 (n=17) during 3 weeks of treatment was determined. Daily food intake (g) during 3 weeks of vehicle or ACY775 treatment was assessed. 24 hours' food intake per mouse during the first week of vehicle or ACY775 treatment was determined. Serum leptin (ng/ml) levels after 3 weeks of vehicle (n=24) or ACY775 (n=24) treatment was assessed. Lean mass (g), fat mass (g) and fat percentage (%) after 3 weeks of vehicle (n=17) or ACY775 (n=17) treatment measured by Dual-energy X-ray absorptiometry (DEXA) scan. DEXA scans were performed in two different cohorts. Glucose tolerance test (GTT) after 1 week of vehicle (n=33) or ACY775 (n=26) treated DIO mice was assessed. Area of curve (AOC) analysis for GTT was performed. Blood glucose (mg/dl) levels after 1 week of vehicle (n=17) or ACY775 (n=16) were assessed in treated DIO mice. Insulin tolerance test (ITT) was performed after 2 weeks of vehicle (n=31) or ACY775 (n=21) treatment of DIO mice. Serum insulin (ng/ml) levels were measured after 3 weeks of vehicle (n=22) or ACY775 (n=21) in treated DIO mice. A homeostatic model assessment of insulin resistance (HOMA-IR) was analyzed after 3 weeks of vehicle (n=14) or ACY775 (n=13) treated DIO mice.
Food intake was analyzed hourly until 3:00 am. […] DEXA scans were performed in two different cohorts.
DIO mice then were treated with ricolinostat (50 mg/kg, i.p.) for 3 weeks. Daily body weight (g), daily food intake (g), serum leptin (ng/ml) levels after 3 weeks of vehicle (n=8) or ricolinostat (n=8) treatment, lean mass (g); fat mass and fat percentage (%) after 3 weeks of vehicle (n=16) or ricolinostat (n=17) treatment measured by DEXA scan were determined.
Studies were conducted as described above with reference to ACY775.
DIO mice then were treated with bavarostat (10 mg/kg, i.p.) for 3 weeks and daily body weight (g) of DIO mice treated with Veh (n=9) or bavarostat (n=9) measured during the three weeks of treatment period. Daily food intake (g) during 3 weeks of Veh or bavarostat treatment was also measured.
ACY1083 was administered to DIO mice as described in Example 3.

Assay [3] concerns STAT3^Tyr705 phosphorylation. Nature of the assay: Leptin-stimulated hypothalamic STAT3 phosphorylation in DIO mice. To be noted: 45 min after leptin 1 mg/kg i.p., ACY775 10, ACY738 50, ricolinostat 50 mg/kg/day i.p. The method, then:
DIO mice were pretreated with ACY775 (10 mg/kg/day, i.p.) or vehicle for 3 days, which was followed by a last injection of ACY775 (or vehicle) in the morning of fourth day. 6 hours later mice were injected with saline or leptin (1 mg/kg, i.p.) and hypothalamus were extracted after 45 minutes following the leptin injection. Representative immunoblots for STAT3^Tyr705 phosphorylation and total STAT3 from the hypothalamus. Quantification of the ratio of p-STAT3^Tyr705 to total-STAT3 signal in the immunoblots. The results were reproduced in three independent experiments. The results were analyzed hourly.
DIO mice were pretreated with ACY775 (10 mg/kg/day, i.p.) or vehicle for 3 days, which was followed by a last injection of ACY775 (or vehicle) in the morning of fourth day. 6 hours later mice were injected with saline or leptin (1 mg/kg, i.p.) and the hypothalamus were extracted after 45 minutes following the leptin injection.
6 hours later mice were injected with saline or leptin (1 mg/kg, i.p.) and hypothalamus were extracted after 45 minutes following the leptin injection. Immunoblots for STAT3^Tyr705 phosphorylation and total STAT3 from the hypothalamus were made to quantify the ratio of p-STAT3^Tyr705 to total-STAT3 signal in the immunoblots. The results were reproduced in two independent experiments.
DIO mice were pretreated with ricolinostat (50 mg/kg/day, i.p.) or vehicle 3 days, which was followed by a last injection of ricolinostat (or vehicle) in the morning of fourth day. 6 hours later mice were injected with saline or leptin (1 mg/kg, i.p.) and the hypothalamus were extracted after 45 minutes following the leptin injection. Immunoblots were performed for STAT3^Tyr705 phosphorylation and total STAT3 from the hypothalamus. The ratio of p-STAT3^Tyr705 to total STAT3 signal in the immunoblots was quantified.

With `O=C(NO)c1cnc(NC2(c3ccccc3)CC2)nc1` [ACY738], in the assay on DIO mice [1], the “body weight 15 h after leptin in inhibitor-pretreated mice” value was “significantly augmented the acute leptin-induced reduction in body weight and food intake”; the “food intake 15 h after leptin in inhibitor-pretreated mice” value was “significantly augmented the acute leptin-induced reduction in body weight and food intake”. Moreover, in the assay with DIO mice [2] (DIO mice), the “average food intake during the first week vs control” value is given as “severely reduced”, the “daily food intake before treatment” value was 2.35 ± 0.10 g, the “body weight after treatment” value turned out to be 37.74 ± 1 g and the “decrease in body weight” value is given as 20.21%±1.32%. In the assay with DIO mice [2] (DIO mice), the “fat mass (DEXA)” value was “significantly decreased”, the “fat percentage (DEXA)” value was “significantly decreased”, the “lean mass (DEXA)” value was “no change in the lean body mass” and the circulating/serum leptin levels result was “significantly decreased”. In addition, in the assay on DIO mice [2] (DIO mice), the “body weight before treatment” value was determined as 46.43 ± 0.74 g and the “daily food intake under treatment” value was 1.32 ± 0.05 g. Besides, the “food intake and total body fat mass” value with DIO mice [2] is “significant reduction of food intake and total body fat mass”. The “leptin-stimulated hypothalamic p-STAT3^Tyr705 in inhibitor-pretreated mice” value in assay [3] is listed as “substantially increased”.
Regarding `O=C(NO)c1cnc(NC2(c3cccc(F)c3)CCCCC2)nc1` [ACY775, 2-[[1-(3-fluorophenyl)cyclohexyl]amino]-N-hydroxy-5-pyrimidinecarboxamide], in the assay on DIO mice [1], the “body weight, inhibitor alone” value was “significantly decreased the bodyweight”; the “food intake, inhibitor alone” value is “reduced the food intake”; the “body weight 15 h after leptin in inhibitor-pretreated mice” value is “further reduction in bodyweight”; the “food intake 15 h after leptin in inhibitor-pretreated mice” value is on record as “further augmented the negative effect of leptin on food intake”. In the assay on DIO mice [2] (DIO mice), the “average food intake during the first week vs control” value is reported as “highly significant reduction”, the “daily food intake before treatment” value turned out to be 2.54 ± 0.10 g, the “body weight after treatment” value came out at 33.53 ± 1.19 g and the “decrease in body weight” value is given as 29.58%±1.79%. In the assay on DIO mice [2] (DIO mice), the “fat mass (DEXA)” value was “significantly lower”, the “fat percentage (DEXA)” value is listed as “significantly lower”, the “lean mass (DEXA)” value was “did not alter the lean mass” and the circulating/serum leptin levels result was “significantly downregulated”. Moreover, in the assay with DIO mice [2] (DIO mice), the “body weight before treatment” value amounted to 48.25 ± 0.87 g and the “daily food intake under treatment” value is 0.85 ± 0.06 g. Further, in the assay on DIO mice [2], the “food intake and total body fat mass” value is “significant reduction of food intake and total body fat mass”. Besides, the “leptin-stimulated hypothalamic p-STAT3^Tyr705 in inhibitor-pretreated mice” value in assay [3] is listed as “increased significantly”.
With `O=C(CCCCCCNC(=O)c1cnc(N(c2ccccc2)c2ccccc2)nc1)NO` [Ricolinostat], in the assay with DIO mice [1], the “body weight, inhibitor alone” value was “did not decrease the bodyweight”; the “food intake, inhibitor alone” value was “no effect on the food intake”; the “body weight 15 h after leptin in inhibitor-pretreated mice” value is “did not reduce the body weight”; the “food intake 15 h after leptin in inhibitor-pretreated mice” value is reported as “no effect on the food intake”. In the assay on DIO mice [2] (DIO mice, 3 weeks i.p., bavarostat 10, citarinostat 25, ricolinostat 50 mg/kg), the “body weight effect of chronic treatment” value is “minimal decrease in bodyweight for the first couple of days without creating any meaningful or significant decreases; also recorded: does not reduce body weight”. In the assay with DIO mice [2] (DIO mice, 3 weeks i.p., bavarostat 10, ricolinostat 50 mg/kg), the “food intake during chronic treatment” value is reported as “reduced transitionally during the first 2-3 days of treatment but then rebounded”. The “leptin-stimulated hypothalamic p-STAT3^Tyr705 in inhibitor-pretreated mice” value in assay [3] was “did not significantly increase STAT3^Tyr705 phosphorylation”.
